Key:
Format in all cases: in vivo
barnyardgrass [1] = test: Test Example 1: herbicidal effects in preemergence treatment under submerged conditions; details: dose 2.52 g/a
Summary of the method: (§1)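 Weed seeds and 2.5-leaf rice seedlings shared each flooded cup of alluvial soil. Dosing, expressed as g per are, was by pouring water-diluted emulsifiable concentrate onto the surface on sowing day. Mortality was graded 0 to 5 after three weeks' growth.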

bulrush [2] = test: as above; details: dose 2.52 g/a
Summary of the method: as §1

ducksalad [3] = test: as above; details: dose 2.52 g/a
Summary of the method: as §1

transplanted rice = test: Test Example 1: preemergence treatment under submerged conditions, effect on crop; details: dose 2.52 g/a
Summary of the method: as §1

barnyardgrass [4] = test: Test Example 2: herbicidal effects during the vegetation period under submerged conditions; details: treatment during the vegetation period under submerged conditions; dose 2.52 g/a
Summary of the method: (§2)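 Barnyardgrass, bulrush and ducksalad were co-sown in alluvial soil flooded to 4 cm and grown in a greenhouse at 25 to 30° C. At the 1- or 2-leaf stage, water-diluted emulsifiable concentrates went onto the water surface at set doses (g/a). Herbicidal effect was scored three weeks later on a graded scale.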

bulrush [5] = test: as above; details: treatment during the vegetation period under submerged conditions; dose 2.52 g/a
Summary of the method: as §2

ducksalad [6] = test: as above; details: treatment during the vegetation period under submerged conditions; dose 2.52 g/a
Summary of the method: as §2

Italian ryegrass [7] = test: Test Example 3: herbicidal effects in soil treatment; details: dose 6.3 g/a
Summary of the method: (§3)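 Seeds were sown in sterilized diluvial soil and covered with about 1.5 cm of soil. Compounds, formulated as emulsifiable concentrates and diluted with water, were sprayed evenly over the soil surface at set doses in g/a. Herbicidal effect was scored on a rating scale three weeks later.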

barnyardgrass [8] = test: as above; details: dose 6.3 g/a
Summary of the method: as §3

common chickweed [9] = test: as above; details: dose 6.3 g/a
Summary of the method: as §3

common lambsquater [10] = test: as above; details: dose 6.3 g/a
Summary of the method: as §3

common ragweed [11] = test: as above; details: dose 6.3 g/a
Summary of the method: as §3

giant foxtail [12] = test: as above; details: dose 6.3 g/a
Summary of the method: as §3

large crabgrass [13] = test: as above; details: dose 6.3 g/a
Summary of the method: as §3

water foxtail [14] = test: as above; details: dose 6.3 g/a
Summary of the method: as §3

wild oat [15] = test: as above; details: dose 6.3 g/a
Summary of the method: as §3

corn [16] = test: Test Example 3: soil treatment, effect on crop; details: dose 6.3 g/a
Text: (§4) Test on the Herbicidal Effects in Soil Treatment
(§5) Sterilized diluvial soil was put in plastic boxes with a length of 21 cm, a width of 13 cm and a depth of 7 cm, and seeds of barnyardgrass, large crabgrass, giant foxtail, wild oat, blackgrass, velvetleaf, common ragweed, redroot pigweed, common lambsquater, posumbu knotweed, common chickweed corn, soybean, rice, wheat and sugar beet were sown in spots and covered with an about 1.5 cm-thick soil layer. Emulsifiable concentrates containing compounds of the present invention formulated in accordance with Formulation Example 2 were uniformly applied to the soil surfaces at predetermined doses through a small sprayer after dilute with water. Three weeks after the application, the herbicidal effects against various plants were determined on the same evaluation scale as in Test Example 1.
(§6) A: barnyardgrass, B: bulrush, C: ducksalad, D: large crabgrass, E: giant foxtail, F: wild oat, G: water foxtail, H: Italian ryegrass, I: velvetleaf, J: common ragweed, K: redroot pigweed, L: common lambsquater, M: posumbu knotweed, N: common chickweed, O: beadstraw, a: transplanted rice, b: corn, c: soybean, d: direct-seeded rice, e: wheat, f: sugar beet.
(§7) The doses (g/a) represents the amounts in g per 1 are (a) applied after adjustment of concentration adjustment.

direct-seeded rice [17] = test: Test Example 3: soil treatment, effect on crop; details: dose 6.3 g/a
Text: as §4, §5, §6, §7

soybean [18] = test: Test Example 3: soil treatment, effect on crop; details: dose 6.3 g/a
Text: as §4, §5, §6, §7

sugar beet [19] = test: Test Example 3: soil treatment, effect on crop; details: dose 6.3 g/a
Text: as §4, §5, §6, §7

wheat [20] = test: Test Example 3: soil treatment, effect on crop; details: dose 6.3 g/a
Text: as §4, §5, §6, §7

Italian ryegrass [21] = test: Test Example 4: herbicidal effect in foliage treatment; details: dose 6.3 g/a, three weeks after the application
Summary of the method: (§8)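 Seeds sown in sterilized diluvial soil under ~1.5 cm soil cover and grown 14 days in a greenhouse at 25 to 30° C. Emulsifiable concentrates diluted with water were then sprayed uniformly on foliage at predetermined doses (g/a). Herbicidal effect was scored three weeks after application on a graded evaluation scale.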

barnyardgrass [22] = test: as above; details: dose 6.3 g/a, three weeks after the application
Summary of the method: as §8

beadstraw = test: as above; details: dose 6.3 g/a, three weeks after the application
Summary of the method: as §8

common chickweed [23] = test: as above; details: dose 6.3 g/a, three weeks after the application
Summary of the method: as §8

common lambsquater [24] = test: as above; details: dose 6.3 g/a, three weeks after the application
Summary of the method: as §8

common ragweed [25] = test: as above; details: dose 6.3 g/a, three weeks after the application
Summary of the method: as §8

giant foxtail [26] = test: as above; details: dose 6.3 g/a, three weeks after the application
Summary of the method: as §8

large crabgrass [27] = test: as above; details: dose 6.3 g/a, three weeks after the application
Summary of the method: as §8

water foxtail [28] = test: as above; details: dose 6.3 g/a, three weeks after the application
Summary of the method: as §8

wild oat [29] = test: as above; details: dose 6.3 g/a, three weeks after the application
Summary of the method: as §8

corn [30] = test: Test Example 4: foliage treatment, effect on crop; details: dose 6.3 g/a, three weeks after the application
Text: (§9) Test on the Herbicidal Effect in Foliage Treatment
as §5, with “chickweed,” for “chickweed”, “The boxes were placed in a greenhouse at 25 to 30° C. to grow the plants. After 14 days, emulsifiable” for “Emulsifiable”, “foliage” for “soil surfaces”, “diluted” for “dilute”
as §6, §7

direct-seeded rice [31] = test: Test Example 4: foliage treatment, effect on crop; details: dose 6.3 g/a, three weeks after the application
Text: as §9
as §5, with “chickweed,” for “chickweed”, “The boxes were placed in a greenhouse at 25 to 30° C. to grow the plants. After 14 days, emulsifiable” for “Emulsifiable”, “foliage” for “soil surfaces”, “diluted” for “dilute”
as §6, §7

soybean [32] = test: Test Example 4: foliage treatment, effect on crop; details: dose 6.3 g/a, three weeks after the application
Text: as §9
as §5, with “chickweed,” for “chickweed”, “The boxes were placed in a greenhouse at 25 to 30° C. to grow the plants. After 14 days, emulsifiable” for “Emulsifiable”, “foliage” for “soil surfaces”, “diluted” for “dilute”
as §6, §7

sugar beet [33] = test: Test Example 4: foliage treatment, effect on crop; details: dose 6.3 g/a, three weeks after the application
Text: as §9
as §5, with “chickweed,” for “chickweed”, “The boxes were placed in a greenhouse at 25 to 30° C. to grow the plants. After 14 days, emulsifiable” for “Emulsifiable”, “foliage” for “soil surfaces”, “diluted” for “dilute”
as §6, §7

wheat [34] = test: Test Example 4: foliage treatment, effect on crop; details: dose 6.3 g/a, three weeks after the application
Text: as §9
as §5, with “chickweed,” for “chickweed”, “The boxes were placed in a greenhouse at 25 to 30° C. to grow the plants. After 14 days, emulsifiable” for “Emulsifiable”, “foliage” for “soil surfaces”, “diluted” for “dilute”
as §6, §7

CCOC(=O)N(c1ccccc1CN1CCOCCC1=O)S(=O)(=O)C(F)(F)F [Compound V-2]
A: barnyardgrass, herbicidal effect (evaluation scale 0-5) (barnyardgrass [1]): 5 (mortality of 90% or above (nearly complete death)) | B: bulrush, herbicidal effect (evaluation scale 0-5) (bulrush [2]): 5 (mortality of 90% or above (nearly complete death)) | C: ducksalad, herbicidal effect (evaluation scale 0-5) (ducksalad [3]): 5 (mortality of 90% or above (nearly complete death)) | a: transplanted rice, effect on crop (evaluation scale 0-5) (transplanted rice): 0 (mortality of less than 5% (almost ineffective)) | A: barnyardgrass, herbicidal effect (evaluation scale 0-5) (barnyardgrass [4]): 4 (mortality of at least 70% and less than 90%) | B: bulrush, herbicidal effect (evaluation scale 0-5) (bulrush [5]): 5 (mortality of 90% or above (nearly complete death)) | C: ducksalad, herbicidal effect (evaluation scale 0-5) (ducksalad [6]): 5 (mortality of 90% or above (nearly complete death)) | herbicidal effect, H: Italian ryegrass (Italian ryegrass [7]): 0 (mortality of less than 5% (almost ineffective)) | herbicidal effect, A: barnyardgrass (barnyardgrass [8]): 4 (mortality of at least 70% and less than 90%) | herbicidal effect, N: common chickweed (common chickweed [9]): 5 (mortality of 90% or above (nearly complete death)) | herbicidal effect, L: common lambsquater (common lambsquater [10]): 5 (mortality of 90% or above (nearly complete death)) | herbicidal effect, J: common ragweed (common ragweed [11]): 5 (mortality of 90% or above (nearly complete death)) | herbicidal effect, E: giant foxtail (giant foxtail [12]): 3 (mortality of at least 40% and less than 70%) | herbicidal effect, D: large crabgrass (large crabgrass [13]): 1 (mortality of at least 5% and less than 20%) | herbicidal effect, G: water foxtail (water foxtail [14]): 5 (mortality of 90% or above (nearly complete death)) | herbicidal effect, F: wild oat (wild oat [15]): 0 (mortality of less than 5% (almost ineffective)) | effect on crop, b: corn (corn [16]): 0 (mortality of less than 5% (almost ineffective)) | effect on crop, d: direct-seeded rice (direct-seeded rice [17]): 0 (mortality of less than 5% (almost ineffective)) | effect on crop, c: soybean (soybean [18]): 0 (mortality of less than 5% (almost ineffective)) | effect on crop, f: sugar beet (sugar beet [19]): 4 (mortality of at least 70% and less than 90%) | effect on crop, e: wheat (wheat [20]): 0 (mortality of less than 5% (almost ineffective)) | H: Italian ryegrass, herbicidal effect (Italian ryegrass [21]): 0 (mortality of less than 5% (almost ineffective)) | A: barnyardgrass, herbicidal effect (barnyardgrass [22]): 5 (mortality of 90% or above (nearly complete death)) | O: beadstraw, herbicidal effect (beadstraw): 3 (mortality of at least 40% and less than 70%) | N: common chickweed, herbicidal effect (common chickweed [23]): 4 (mortality of at least 70% and less than 90%) | L: common lambsquater, herbicidal effect (common lambsquater [24]): 5 (mortality of 90% or above (nearly complete death)) | J: common ragweed, herbicidal effect (common ragweed [25]): 5 (mortality of 90% or above (nearly complete death)) | E: giant foxtail, herbicidal effect (giant foxtail [26]): 4 (mortality of at least 70% and less than 90%) | D: large crabgrass, herbicidal effect (large crabgrass [27]): 2 (mortality of at least 20% and less than 40%) | G: water foxtail, herbicidal effect (water foxtail [28]): 5 (mortality of 90% or above (nearly complete death)) | F: wild oat, herbicidal effect (wild oat [29]): 0 (mortality of less than 5% (almost ineffective)) | b: corn, effect on crop (corn [30]): 1 (mortality of at least 5% and less than 20%) | d: direct-seeded rice, effect on crop (direct-seeded rice [31]): 3 (mortality of at least 40% and less than 70%) | c: soybean, effect on crop (soybean [32]): 3 (mortality of at least 40% and less than 70%) | f: sugar beet, effect on crop (sugar beet [33]): 3 (mortality of at least 40% and less than 70%) | e: wheat, effect on crop (wheat [34]): 0 (mortality of less than 5% (almost ineffective))

Reference: patent publication US20120029187A1, “HALOALKYLSULFONANILIDE DERIVATIVE” (Nissan Chemical Industries, Ltd., priority 2009, published 2012)
